Measured values taken from PubChem BioAssay (NCI).
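Cultured in 96-well plates, cells were exposed to test compound for 48 hours across five concentrations. GI50: concentration for 50% inhibition of growth. TGI marks complete inhibition of growth.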

How the values were obtained:
Assay in all cases: NCI-60 cell line screen, 48 h
A498 renal = system: A498 renal
A549 NSCLC = system: A549 NSCLC
ACHN renal = system: ACHN renal
BT-549 breast = system: BT-549 breast
CAKI-1 renal = system: CAKI-1 renal
CCRF-CEM leukemia = system: CCRF-CEM leukemia
COLO 205 colon = system: COLO 205 colon
DU-145 prostate = system: DU-145 prostate
EKVX NSCLC = system: EKVX NSCLC
HCC-2998 colon = system: HCC-2998 colon
HCT-15 colon = system: HCT-15 colon
HL-60(TB) leukemia = system: HL-60(TB) leukemia
HOP-62 NSCLC = system: HOP-62 NSCLC
HOP-92 NSCLC = system: HOP-92 NSCLC
HT29 colon = system: HT29 colon
IGROV1 ovarian = system: IGROV1 ovarian
K-562 leukemia = system: K-562 leukemia
KM12 colon = system: KM12 colon
LOX IMVI melanoma = system: LOX IMVI melanoma
M14 melanoma = system: M14 melanoma
MALME-3M melanoma = system: MALME-3M melanoma
MCF7 breast = system: MCF7 breast
MDA-MB-231 breast = system: MDA-MB-231 breast
MDA-MB-435 = system: MDA-MB-435
MDA-MB-468 breast = system: MDA-MB-468 breast
MOLT-4 leukemia = system: MOLT-4 leukemia
NCI-H226 lung = system: NCI-H226 lung
NCI-H23 lung = system: NCI-H23 lung
NCI-H460 lung = system: NCI-H460 lung
NCI-H522 lung = system: NCI-H522 lung
NCI/ADR-RES ovarian = system: NCI/ADR-RES ovarian
OVCAR-3 ovarian = system: OVCAR-3 ovarian
OVCAR-4 ovarian = system: OVCAR-4 ovarian
OVCAR-5 ovarian = system: OVCAR-5 ovarian
OVCAR-8 ovarian = system: OVCAR-8 ovarian
PC-3 prostate = system: PC-3 prostate
RPMI-8226 leukemia = system: RPMI-8226 leukemia
RXF 393 renal = system: RXF 393 renal
SF-268 CNS = system: SF-268 CNS
SF-295 CNS = system: SF-295 CNS
SF-539 CNS = system: SF-539 CNS
SK-MEL-2 melanoma = system: SK-MEL-2 melanoma
SK-MEL-28 melanoma = system: SK-MEL-28 melanoma
SK-MEL-5 melanoma = system: SK-MEL-5 melanoma
SK-OV-3 ovarian = system: SK-OV-3 ovarian
SN12C renal = system: SN12C renal
SNB-19 CNS = system: SNB-19 CNS
SW-620 colon = system: SW-620 colon
TK-10 renal = system: TK-10 renal
UACC-257 melanoma = system: UACC-257 melanoma
UACC-62 melanoma = system: UACC-62 melanoma
UO-31 renal = system: UO-31 renal

Compound: COc1cccc(COc2ccc(/C=C3\Oc4cc(O)ccc4C3=O)cc2)c1
- GI50 (A498 renal): > 100 µM
- TGI (A498 renal): > 100 µM
- GI50 (A549 NSCLC): > 100 µM
- TGI (A549 NSCLC): > 100 µM
- GI50 (ACHN renal): 4.97 µM
- TGI (ACHN renal): > 100 µM
- GI50 (BT-549 breast): > 100 µM
- TGI (BT-549 breast): > 100 µM
- GI50 (CAKI-1 renal): 85.2 µM
- TGI (CAKI-1 renal): > 100 µM
- GI50 (CCRF-CEM leukemia): > 100 µM
- TGI (CCRF-CEM leukemia): > 100 µM
- GI50 (COLO 205 colon): > 100 µM
- TGI (COLO 205 colon): > 100 µM
- GI50 (DU-145 prostate): > 100 µM
- TGI (DU-145 prostate): > 100 µM
- GI50 (EKVX NSCLC): > 100 µM
- TGI (EKVX NSCLC): > 100 µM
- GI50 (HCC-2998 colon): > 100 µM
- TGI (HCC-2998 colon): > 100 µM
- GI50 (HCT-15 colon): > 100 µM
- TGI (HCT-15 colon): > 100 µM
- GI50 (HL-60(TB) leukemia): > 100 µM
- TGI (HL-60(TB) leukemia): > 100 µM
- GI50 (HOP-62 NSCLC): > 100 µM
- TGI (HOP-62 NSCLC): > 100 µM
- GI50 (HOP-92 NSCLC): 2.62 µM
- TGI (HOP-92 NSCLC): > 100 µM
- GI50 (HT29 colon): > 100 µM
- TGI (HT29 colon): > 100 µM
- GI50 (IGROV1 ovarian): > 100 µM
- TGI (IGROV1 ovarian): > 100 µM
- GI50 (K-562 leukemia): > 100 µM
- TGI (K-562 leukemia): > 100 µM
- GI50 (KM12 colon): > 100 µM
- TGI (KM12 colon): > 100 µM
- GI50 (LOX IMVI melanoma): > 100 µM
- TGI (LOX IMVI melanoma): > 100 µM
- GI50 (M14 melanoma): > 100 µM
- TGI (M14 melanoma): > 100 µM
- GI50 (MALME-3M melanoma): > 100 µM
- TGI (MALME-3M melanoma): > 100 µM
- GI50 (MCF7 breast): > 100 µM
- TGI (MCF7 breast): > 100 µM
- GI50 (MDA-MB-231 breast): > 100 µM
- TGI (MDA-MB-231 breast): > 100 µM
- GI50 (MDA-MB-435): > 100 µM
- TGI (MDA-MB-435): > 100 µM
- GI50 (MDA-MB-468 breast): 42.5 µM
- TGI (MDA-MB-468 breast): > 100 µM
- GI50 (MOLT-4 leukemia): > 100 µM
- TGI (MOLT-4 leukemia): > 100 µM
- GI50 (NCI-H226 lung): > 100 µM
- TGI (NCI-H226 lung): > 100 µM
- GI50 (NCI-H23 lung): > 100 µM
- TGI (NCI-H23 lung): > 100 µM
- GI50 (NCI-H460 lung): > 100 µM
- TGI (NCI-H460 lung): > 100 µM
- GI50 (NCI-H522 lung): > 100 µM
- TGI (NCI-H522 lung): > 100 µM
- GI50 (NCI/ADR-RES ovarian): > 100 µM
- TGI (NCI/ADR-RES ovarian): > 100 µM
- GI50 (OVCAR-3 ovarian): > 100 µM
- TGI (OVCAR-3 ovarian): > 100 µM
- GI50 (OVCAR-4 ovarian): 2.94 µM
- TGI (OVCAR-4 ovarian): 10.6 µM
- GI50 (OVCAR-5 ovarian): > 100 µM
- TGI (OVCAR-5 ovarian): > 100 µM
- GI50 (OVCAR-8 ovarian): > 100 µM
- TGI (OVCAR-8 ovarian): > 100 µM
- GI50 (PC-3 prostate): > 100 µM
- TGI (PC-3 prostate): > 100 µM
- GI50 (RPMI-8226 leukemia): > 100 µM
- TGI (RPMI-8226 leukemia): > 100 µM
- GI50 (RXF 393 renal): > 100 µM
- TGI (RXF 393 renal): > 100 µM
- GI50 (SF-268 CNS): > 100 µM
- TGI (SF-268 CNS): > 100 µM
- GI50 (SF-295 CNS): > 100 µM
- TGI (SF-295 CNS): > 100 µM
- GI50 (SF-539 CNS): 23.4 µM
- TGI (SF-539 CNS): > 100 µM
- GI50 (SK-MEL-2 melanoma): > 100 µM
- TGI (SK-MEL-2 melanoma): > 100 µM
- GI50 (SK-MEL-28 melanoma): > 100 µM
- TGI (SK-MEL-28 melanoma): > 100 µM
- GI50 (SK-MEL-5 melanoma): > 100 µM
- TGI (SK-MEL-5 melanoma): > 100 µM
- GI50 (SK-OV-3 ovarian): > 100 µM
- TGI (SK-OV-3 ovarian): > 100 µM
- GI50 (SN12C renal): > 100 µM
- TGI (SN12C renal): > 100 µM
- GI50 (SNB-19 CNS): > 100 µM
- TGI (SNB-19 CNS): > 100 µM
- GI50 (SW-620 colon): 23.1 µM
- TGI (SW-620 colon): > 100 µM
- GI50 (TK-10 renal): > 100 µM
- TGI (TK-10 renal): > 100 µM
- GI50 (UACC-257 melanoma): > 100 µM
- TGI (UACC-257 melanoma): > 100 µM
- GI50 (UACC-62 melanoma): > 100 µM
- TGI (UACC-62 melanoma): > 100 µM
- GI50 (UO-31 renal): > 100 µM
- TGI (UO-31 renal): > 100 µM
